Experimental data reported in US20230265151A1, “GIP/GLP1 CO-AGONIST COMPOUNDS” (priority 2020, published 2023).
Where two headings read alike, the source gives them in different places.

How the values were obtained:
Type in all cases: cell-based
[1] = target: hGLP-1R (Homo sapiens, UniProt P43220); assay: Functional cAMP formation (HTRF) in HEK-293 clonal cells expressing hGLP-1R, 0.1% bovine casein, without or with 1.0% human serum albumin; design: expressed in transfected cells; conditions: 0.1% bovine casein and 1.0% human serum albumin, 37° C., geometric mean
Method in brief: (§1)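 Readings of the HTRF 665/620 nm ratio, which falls as cAMP rises, were converted to nM cAMP using a standard curve after 30 min peptide exposure at 37° C.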

[2] = target: T1, hGIPR (Homo sapiens, UniProt P48546); assay: Functional cAMP formation (HTRF) in HEK-293 clonal cells expressing hGIPR, 0.1% bovine casein, without or with 1.0% human serum albumin; conditions: for EC50: geometric mean
T1 construct: expressed in transfected cells
T1 sequence (P48546 22-466): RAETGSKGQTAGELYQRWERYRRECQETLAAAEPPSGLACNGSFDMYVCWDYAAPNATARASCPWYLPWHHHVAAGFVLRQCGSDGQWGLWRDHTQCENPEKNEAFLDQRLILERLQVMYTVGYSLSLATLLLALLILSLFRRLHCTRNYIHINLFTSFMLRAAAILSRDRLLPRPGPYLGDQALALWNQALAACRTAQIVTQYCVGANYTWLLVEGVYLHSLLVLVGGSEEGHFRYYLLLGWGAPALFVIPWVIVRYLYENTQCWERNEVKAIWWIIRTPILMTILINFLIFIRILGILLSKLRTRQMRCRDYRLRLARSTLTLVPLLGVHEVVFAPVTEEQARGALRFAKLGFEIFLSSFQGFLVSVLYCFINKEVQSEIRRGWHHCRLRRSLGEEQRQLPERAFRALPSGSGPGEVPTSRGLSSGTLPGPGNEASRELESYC
Method in brief: as §1

[3] = target: T2, hGCGR (Homo sapiens, UniProt P47871); assay: Functional cAMP formation (HTRF) in HEK-293 clonal cells expressing hGCGR, 0.1% bovine casein, without or with 1.0% human serum albumin; conditions: geometric mean
T2 construct: expressed in transfected cells
Method in brief: as §1

T2 sequence (P47871 26-477): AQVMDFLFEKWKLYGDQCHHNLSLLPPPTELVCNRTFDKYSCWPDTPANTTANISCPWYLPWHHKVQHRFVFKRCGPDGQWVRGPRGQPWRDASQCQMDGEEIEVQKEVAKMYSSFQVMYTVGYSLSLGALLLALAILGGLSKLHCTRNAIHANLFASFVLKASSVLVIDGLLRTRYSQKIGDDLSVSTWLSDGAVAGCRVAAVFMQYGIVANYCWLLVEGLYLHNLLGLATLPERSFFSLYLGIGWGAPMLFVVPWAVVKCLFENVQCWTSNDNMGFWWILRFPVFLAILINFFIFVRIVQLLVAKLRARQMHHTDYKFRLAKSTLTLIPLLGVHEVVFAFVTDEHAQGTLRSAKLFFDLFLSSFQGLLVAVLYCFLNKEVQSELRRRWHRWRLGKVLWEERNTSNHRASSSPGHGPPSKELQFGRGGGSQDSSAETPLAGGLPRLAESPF
Sequence of hGLP-1R (P43220 24-463): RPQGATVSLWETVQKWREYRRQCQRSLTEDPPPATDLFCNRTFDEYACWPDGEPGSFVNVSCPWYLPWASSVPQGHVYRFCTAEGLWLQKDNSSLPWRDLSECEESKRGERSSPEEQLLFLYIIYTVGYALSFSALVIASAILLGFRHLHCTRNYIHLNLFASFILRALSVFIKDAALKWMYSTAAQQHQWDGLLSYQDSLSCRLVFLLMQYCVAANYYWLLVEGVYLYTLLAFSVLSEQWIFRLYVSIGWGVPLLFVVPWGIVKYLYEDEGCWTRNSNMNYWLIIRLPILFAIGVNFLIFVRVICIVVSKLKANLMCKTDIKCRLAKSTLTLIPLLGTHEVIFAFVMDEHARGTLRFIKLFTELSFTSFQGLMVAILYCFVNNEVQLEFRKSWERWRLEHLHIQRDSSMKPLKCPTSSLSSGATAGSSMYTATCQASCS

## CC[C@H](C)[C@H](NC(=O)[C@H](CC(C)C)NC(=O)[C@](C)(Cc1ccc(O)cc1)NC(=O)[C@@H](CCC(=O)O)NC(=O)[C@@H](NC(=O)[C@H](Cc1ccccc1)NC(=O)[C@H](CCC(=O)O)NC(=O)C(C)(C)NC(=O)[C@H](CCC(N)=O)NC(=O)[C@H](C)NC(=O)[C@H](CCCCNC(=O)COCCOCCNC(=O)COCCOCCNC(=O)CCCCCCCCCCCCC(=O)O)NC(=O)[C@H](CCCN)NC(=O)[C@H](CC(=O)O)NC(=O)[C@H](CC(C)C)NC(=O)[C@](C)(CC(C)C)NC(=O)[C@@H](NC(=O)[C@H](CO)NC(=O)[C@H](Cc1ccncc1)NC(=O)[C@H](CC(=O)O)NC(=O)[C@H](CO)NC(=O)[C@@H](NC(=O)[C@](C)(Cc1ccccc1F)NC(=O)[C@@H](NC(=O)CNC(=O)[C@H](CCC(=O)O)NC(=O)C(C)(C)NC(=O)[C@@H](N)Cc1ccc(O)cc1)[C@@H](C)O)[C@@H](C)O)[C@@H](C)CC)[C@@H](C)CC)C(=O)N[C@@H](CCC(=O)O)C(=O)NCC(=O)NCC(=O)N[C@@H](CCCCNC(=O)COCCOCCNC(=O)COCCOCCNC(=O)CCCCCCCCCCCCC(=O)O)C(=O)N[C@@H](CO)C(=O)N[C@@H](CO)C(=O)NCC(=O)N[C@@H](C)C(=O)N1CCC[C@H]1C(=O)N1CCC[C@H]1C(=O)N1CCC[C@H]1C(=O)N[C@@H](CO)C(N)=O [Example 9]
[1]; read-out: hGLP-1R EC50, nM (SEM, n)
  EC50: 8.82 nM
[2]; 0.1% bovine casein and 1.0% human serum albumin, 37° C., read-out: hGIPR EC50, nM (SEM, n)
  EC50: 0.211 nM
[2]; HEK293, 0.1% bovine casein and 1.0% human serum albumin, 37° C., percent of maximal response to GIP(1-42)NH2, read-out: hGIPR Emax, % ± SEM
  Emax: 91.6 ± 4.63%
[2]; HEK293, percent of maximal response to GIP(1-42)NH2, 37° C., 0.1% bovine casein, arithmetic mean, read-out: hGIPR Emax, % ± SEM
  Emax: 93.6 ± 2.36%
[2]; cAMP, incubated at 37° C., 0.1% bovine casein (no human serum albumin), read-out: hGIPR EC50, nM (SEM, n)
  EC50: 0.0102 nM
[3]; 0.1% bovine casein and 1.0% human serum albumin, 37° C., read-out: hGCGR EC50, nM (SEM, n)
  EC50: > 9950 nM
[3]; cAMP, incubated at 37° C., 0.1% bovine casein (no human serum albumin), read-out: hGCGR EC50, nM (SEM, n)
  EC50: > 9950 nM

## CC[C@H](C)[C@H](NC(=O)[C@H](CC(C)C)NC(=O)[C@](C)(Cc1ccc(O)cc1)NC(=O)[C@@H](CCC(=O)O)NC(=O)[C@@H](NC(=O)[C@H](Cc1ccccc1)NC(=O)[C@H](CCC(=O)O)NC(=O)C(C)(C)NC(=O)[C@H](CCC(N)=O)NC(=O)[C@H](C)NC(=O)[C@H](CCCCNC(=O)COCCOCCNC(=O)COCCOCCNC(=O)CCCCCCCCCOc1ccc(C(=O)O)cc1)NC(=O)[C@H](CCCN)NC(=O)[C@H](CC(=O)O)NC(=O)[C@H](CC(C)C)NC(=O)[C@](C)(CC(C)C)NC(=O)[C@@H](NC(=O)[C@H](CO)NC(=O)[C@H](Cc1ccncc1)NC(=O)[C@H](CC(=O)O)NC(=O)[C@H](CO)NC(=O)[C@@H](NC(=O)[C@](C)(Cc1ccccc1F)NC(=O)[C@@H](NC(=O)CNC(=O)[C@H](CCC(=O)O)NC(=O)C(C)(C)NC(=O)[C@@H](N)Cc1ccc(O)cc1)[C@@H](C)O)[C@@H](C)O)[C@@H](C)CC)[C@@H](C)CC)C(=O)N[C@@H](CCC(=O)O)C(=O)NCC(=O)NCC(=O)N[C@@H](CCCCNC(=O)COCCOCCNC(=O)COCCOCCNC(=O)CCCCCCCCCOc1ccc(C(=O)O)cc1)C(=O)N[C@@H](CO)C(=O)N[C@@H](CO)C(=O)NCC(=O)N[C@@H](C)C(=O)N1CCC[C@H]1C(=O)N1CCC[C@H]1C(=O)N1CCC[C@H]1C(=O)N[C@@H](CO)C(N)=O [Example 10]
[1]; hGLP-1R EC50, nM (SEM, n)
  EC50: 4.38 nM
[2]; HEK293, read-out: hGIPR Emax, % ± SEM, 0.1% bovine casein and 1.0% human serum albumin, 37° C., percent of maximal response to GIP(1-42)NH2
  Emax: 84.9 ± 1.84%
[2]; HEK293, read-out: hGIPR Emax, % ± SEM, percent of maximal response to GIP(1-42)NH2, 37° C., 0.1% bovine casein, arithmetic mean
  Emax: 97.9 ± 1.99%
[2]; hGIPR EC50, nM (SEM, n), 0.1% bovine casein and 1.0% human serum albumin, 37° C.
  EC50: 0.121 nM
[2]; hGIPR EC50, nM (SEM, n), cAMP, incubated at 37° C., 0.1% bovine casein (no human serum albumin)
  EC50: 0.0106 nM
[3]; hGCGR EC50, nM (SEM, n), 0.1% bovine casein and 1.0% human serum albumin, 37° C.
  EC50: > 9950 nM
[3]; hGCGR EC50, nM (SEM, n), cAMP, incubated at 37° C., 0.1% bovine casein (no human serum albumin)
  EC50: > 9950 nM
